The target in one experiment is T1, aromatase (Rattus norvegicus, UniProt P22443).
T1 construct: ovarian microsomes are obtained from rats treated with pregnant mares serum gonadotropin; from tissue; host or cells: rat ovary microsomes (rats treated with pregnant mares serum gonadotropin)
T1 sequence (P22443 1-508): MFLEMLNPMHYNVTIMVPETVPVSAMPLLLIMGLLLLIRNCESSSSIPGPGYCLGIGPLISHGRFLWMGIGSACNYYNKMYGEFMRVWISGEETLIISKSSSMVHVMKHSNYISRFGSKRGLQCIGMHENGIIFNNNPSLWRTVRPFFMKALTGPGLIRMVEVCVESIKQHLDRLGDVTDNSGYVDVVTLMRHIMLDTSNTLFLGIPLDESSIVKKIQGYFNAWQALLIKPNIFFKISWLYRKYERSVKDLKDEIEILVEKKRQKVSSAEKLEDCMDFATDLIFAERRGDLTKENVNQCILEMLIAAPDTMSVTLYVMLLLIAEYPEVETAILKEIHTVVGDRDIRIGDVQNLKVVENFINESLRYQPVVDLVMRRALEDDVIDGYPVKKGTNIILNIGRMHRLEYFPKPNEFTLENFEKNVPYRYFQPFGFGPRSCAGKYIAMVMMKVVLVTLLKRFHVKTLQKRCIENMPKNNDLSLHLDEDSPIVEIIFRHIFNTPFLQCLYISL
The experiment is described as follows: Aromatase inhibition in the rat ovarian microsome assay. The format is biochemical. The following applies: substrate (androstenedione) concentration 0.1 μM; rat ovarian microsomes; read-out: EC50 (concentration of compound required to achieve 50% inhibition of aromatase activity). On the procedure: In this test system, ovarian microsomes are obtained from rats treated with pregnant mares serum gonadotropin. Test compounds are added to reaction vials containing 0.1 μM 4-androstene-3,17-dione, 100,000 dpm 1,2[^3 H]-androstenedione, the microsomes and a NADPH generating system. The concentrations of the inhibitors tested ranged between 5 and 10000 nM. […] Potency is determined based on the concentration of inhibitor in nM required to produce a 50% inhibition of enzyme activity (EC50) when the concentration of substrate (androstenedione) is 0.1 μM.

In experiment [1] the test system is Estrogen synthesis (aromatization). Put plainly: Estrogen Synthesis Inhibition in Rats.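 On Uterine Wt. %: 100% equals the stimulated control's weight gain over the unstimulated control.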 The format is in vivo, immature female Wistar rats. The following applies: Rattus norvegicus, po, 168 h, gavage; for response vs control in vivo at 3 mg/kg: 3 mg/kg × 7 days; for response vs control in vivo at 30 mg/kg: 30 mg/kg × 7 days. On the procedure: By virtue of their ability to inhibit the enzyme aromatase, the compounds of this invention are able to inhibit the synthesis of estrogens in mammals, thereby making the compounds useful in the treatment of estrogen-dependent diseases, such as breast cancer.
Immature female Wistar rats (45-55 grams) were divided into control and test groups of 2-8 animals each. Test compounds were administered for seven days daily by gavage in corn oil. Control animals received corn oil without the test compound. Beginning on the fourth day of the test, all animals treated with the test compound and one half of the control animals were given a subcutaneous injection of 1.0 mg of testosterone propionate in corn oil. The remaining control animals received only an equivalent volume of corn oil. On the seventh day of the test, rats treated with testosterone propionate were injected subcutaneously with 100 μCi of [^3 H]-testosterone in 50 μl of saline-ethanol (3:1).
After two hours, the animals were killed by decapitation. Uteri were isolated, trimmed of extraneous connective tissue, and weighed. […] In the control animals treated with testosterone propionate, estrogens produced by aromatization stimulated the uterus resulting in an increase in weight.
Ovaries from rats treated with [^3 H]-testosterone were excised, cleaned of extraneous tissue, and homogenized in 2.5 ml of a 1.0 mM potassium phosphate buffer containing 3.0 mM MgCl2.6H2 O, 320 mM sucrose, and 0.25% Triton X-100 (polyethylene glycol p-isooctyl phenyl ether, Rohm and Haas) at pH 6.5. The ovarian steroids were extracted with 1.5 ml of 9:1 toluene/ethanol to which had been added 25 to 100 mcg each of unlabelled estradiol, estriol, and estrone, and approximately 1000 dpm of [^14 C]-estradiol. The samples were vortexed, centrifuged at 500×g for 10 minutes, and the organic phase was transferred to a conical vial. Two additional extractions were performed on the residue in the same way. The pooled organic extracts were evaporated for subsequent thin-layer chromatography.
Ovarian proteins were precipitated by the addition of 5.0 ml of ethanol to the remaining aqueous phase. After an overnight incubation at 4° C., the samples were centrifuged at 1500×g for 10 minutes. The supernatant was discarded and the pellet was dissolved in 0.3 N potassium hydroxide. Protein was determined according to the method of Bradford, Analytical Biochemistry, 72, 248 (1976).
The organic residue from each above extraction was redissolved in 9:1 dichloromethane/methanol. The solution of each sample was applied to separate silica gel thin layer chromatography plates which contained a fluorescent indicator. The plates were developed the first dimension with 160:38:1.5:0.5 dichloromethane/ethyl acetate/methanol/acetic acid to within 3 cm of the top of the plate. After air-drying, the plate was developed in the second dimension with 180:19:1 dichloromethane/methanol/ammonium hydroxide. The plate was air-dried and viewed under 254 nm UV light.
The visible spots were marked and the plates were sprayed with primulin (0.001% in 4:1 acetone/water) according to the method of Wright, J. Chromatography, 59, 220 (1971) which allowed for the identification of additional steroids under 365 nm UV light. The spots were scraped from the plate using a glass wool plugged Pasteur pipet attached to a vacuum line. The steroids were eluted directly into scintillation vials by the addition of 0.2 ml of dichloromethane followed by two washes each of 2.0 ml of methanol. The organic solvent was evaporated and 10.0 ml of scintillation fluid (Beckman Ready Solv-NA) was added to the vials. Samples were analyzed by liquid scintillation spectrometry and the corrections were made based on the recoveries of the [^14 C]-steroid.
In Table 2, values for uterine weight are expressed as the respective weights of drug treated (DT), unstimulated corn oil control (UC), and stimulated corn oil control (SC) according to the calculation %=100 (DT-UC)/(SC-UC). […]

The mark [2] stands for this setting: 100 (DT-UC)/(SC-UC), read-out: Uterine Wt. %.
The mark [3] stands for this setting: ovaries, percent of testosterone-treated controls, read-out: % steroid concentration, estradiol.
[4] abbreviates: ovaries, percent of testosterone-treated controls, read-out: % steroid concentration, estrone.

Where two headings read alike, the source gives them in different places.

Regarding `COc1ccc2c(c1)-c1ncncc1C2c1cccc(Cl)c1` (stereo not shown) [Example 16, 5-(3-chlorophenyl)-8-methoxy-5H-indeno[1,2-d]pyrimidine], the EC50 at aromatase is under 50 nM.

Take `Fc1ccccc1C1c2ccccc2-c2ncncc21` (stereo not shown) [Example 14, 5-(2-fluorophenyl)-5H-indeno[1,2-d]pyrimidine]: at aromatase, the EC50 was determined as 86 nM.

As to `Fc1cccc(C2c3ccccc3-c3ncncc32)c1` (stereo not shown) [Example 9, 5-(3-fluorophenyl)-5H-indeno[1,2-d]pyrimidine], the EC50 on aromatase is under 50 nM.

As for `COc1ccc2c(c1)C(c1ccc(Cl)cc1)c1cncnc1-2` (stereo not shown) [Example 12, 5-(4-chlorophenyl)-7-methoxy-5H-indeno[1,2-d]pyrimidine], the EC50 on aromatase came to 128 nM.

As to `FC1(c2ccc(Cl)cc2)c2ccc(Cl)cc2-c2ncncc21` (stereo not shown) [Example 28, 8-chloro-5-(4-chlorophenyl)-5-fluoro-5H-indeno[1,2-d]pyrimidine], at aromatase, the EC50 worked out at 35 nM.

`OC1(c2ccc(F)cc2)c2ccccc2-c2ncncc21` (stereo not shown) [Example 21, 5-(4-fluorophenyl)-5H-indeno[1,2-d]pyrimidin-5-ol]: the response vs control in vivo at 3 mg/kg amounted to 46.4% in experiment [1] (setting [2]), 14.5% in experiment [1] (setting [3]) and 83.8% in experiment [1] (setting [4]). The response vs control in vivo at 30 mg/kg in experiment [1] (setting [2]) was 17.9%; in experiment [1] (setting [3]) it was 8.8%; in experiment [1] (setting [4]) it was 71.3%. The EC50 at aromatase is under 50 nM.

`CC(=O)NC1(c2ccc(Cl)cc2)c2ccc(Cl)cc2-c2ncncc21` (stereo not shown) [Example 23, N-[8-chloro-5-(4-chlorophenyl)-5H-indeno[1,2-d]pyrimidin-5-yl]acetamide]: on aromatase, the EC50 came out at 265 nM.

As for `OC1(c2ccccc2Cl)c2ccc(Cl)cc2-c2ncncc21` (stereo not shown) [Example 22, 8-chloro-5-(2-chlorophenyl)-5H-indeno[1,2-d]pyrimidin-5-ol], the response vs control in vivo at 3 mg/kg in experiment [1] (setting [2]) came to 70%; in experiment [1] (setting [3]), 79.4%; in experiment [1] (setting [4]), 73.4%. In addition, the figures for the response vs control in vivo at 30 mg/kg in experiment [1] (setting [2]), in experiment [1] (setting [3]) and in experiment [1] (setting [4]) were 57.4%, 40.8% and 90.1%, respectively. In addition, on aromatase, the EC50 amounted to 50 nM.

As to `ClC1(c2ccccc2)c2ccccc2-c2ncncc21` (stereo not shown) [Example 26, 5-chloro-5-phenyl-5H-indeno[1,2-d]pyrimidine], the EC50 at aromatase worked out at 118 nM.

For `Fc1ccc(C2c3ccc(C(F)(F)F)cc3-c3ncncc32)cc1` (stereo not shown) [Example 4, 5-(4-fluorophenyl)-8-(trifluoromethyl)-5H-indeno[1,2-d]pyrimidine], in experiment [1] (setting [2]), the response vs control in vivo at 3 mg/kg is -14.3% and the response vs control in vivo at 30 mg/kg was -35.5%. Further, the EC50 at aromatase amounted to 27 nM.

As to `CC(=O)NC1(c2ccc(F)cc2)c2ccccc2-c2ncncc21` (stereo not shown) [Example 24, N-[5-(4-fluorophenyl)-5H-indeno[1,2-d]pyrimidin-5-yl]acetamide], the response vs control in vivo at 3 mg/kg in experiment [1] (setting [2]) came to 32.3%; in experiment [1] (setting [3]) it was 43.2%; in experiment [1] (setting [4]) it was 71.9%. For the same molecule, the response vs control in vivo at 30 mg/kg in experiment [1] (setting [2]) turned out to be 23.2%; in experiment [1] (setting [3]), 19.2%; in experiment [1] (setting [4]), 59.9%. Moreover, on aromatase, the EC50 was found to be 69 nM.

Regarding `OC1(c2ccc(Cl)cc2)c2ccc(Cl)cc2-c2ncncc21` (stereo not shown) [Example 18, 8-chloro-5-(4-chlorophenyl)-5H-indeno[1,2-d]pyrimidin-5-ol], the response vs control in vivo at 3 mg/kg came to 30.4% in experiment [1] (setting [2]), 16.8% in experiment [1] (setting [3]) and 89% in experiment [1] (setting [4]). Further, the response vs control in vivo at 30 mg/kg in experiment [1] (setting [2]) was -7.7%; in experiment [1] (setting [3]), 7.5%; in experiment [1] (setting [4]) it was 77%. Moreover, the EC50 at aromatase is 26 nM.

As to `COc1ccc2c(c1)C(O)(c1ccc(Cl)cc1)c1cncnc1-2` (stereo not shown) [Example 20, 5-(4-chlorophenyl)-7-methoxy-5H-indeno[1,2-d]pyrimidin-5-ol], at aromatase, the EC50 is 420 nM.

With `COc1ccc2c(c1)C(c1ccc(F)cc1)c1cncnc1-2` (stereo not shown) [Example 13, 5-(4-fluorophenyl)-7-methoxy-5H-indeno[1,2-d]pyrimidine], the EC50 at aromatase is 61 nM.

With `Clc1ccc2c(c1)-c1ncncc1C2c1ccccc1` (stereo not shown) [Example 3, 8-chloro-5-phenyl-5H-indeno[1,2-d]pyrimidine], the EC50 at aromatase turned out to be 21 nM.

For `CC(=O)NC1(c2ccc(Cl)cc2Cl)c2ccccc2-c2ncncc21` (stereo not shown) [Example 25, N-[5-(2,4-dichlorophenyl)-5H-indeno[1,2-d]pyrimidin-5-yl]acetamide], the EC50 at aromatase was found to be 500 nM.

In the case of `Clc1ccc(C2(Cl)c3ccc(Cl)cc3-c3ncncc32)cc1` (stereo not shown) [Example 27, 5,8-dichloro-5-(4-chlorophenyl)-5H-indeno[1,2-d]pyrimidine], the EC50 on aromatase amounted to 72 nM.

As for `c1ccc(C2c3ccccc3-c3ncncc32)cc1` (stereo not shown) [Example 7, 5-phenyl-5H-indeno[1,2-d]pyrimidine], on aromatase, the EC50 turned out to be 84 nM.

For the molecule `Clc1ccc(Cl)c(C2c3ccccc3-c3ncncc32)c1` (stereo not shown) [Example 10, 5-(2,5-dichlorophenyl)-5H-indeno[1,2-d]pyrimidine], on aromatase, the EC50 stood at 84 nM.

Regarding `Fc1ccc2c(c1)C(c1ccccc1F)c1cncnc1-2` (stereo not shown) [Example 17, 7-fluoro-5-(2-fluorophenyl)-5H-indeno[1,2-d]pyrimidine], the EC50 on aromatase turned out to be 750 nM.

For the molecule `Fc1ccc(C2c3ccccc3-c3ncncc32)cc1` (stereo not shown) [Example 15, 5-(4-fluorophenyl)-5H-indeno[1,2-d]pyrimidine], on aromatase, the EC50 was under 50 nM.

With `Clc1ccc(C2c3ccccc3-c3ncncc32)cc1Cl` (stereo not shown) [Example 11, 5-(3,4-dichlorophenyl)-5H-indeno[1,2-d]pyrimidine], the EC50 at aromatase is under 50 nM.

Regarding `Clc1ccc(C2c3ccccc3-c3ncncc32)c(Cl)c1` (stereo not shown) [Example 8, 5-(2,4-dichlorophenyl)-5H-indeno[1,2-d]pyrimidine], at aromatase, the EC50 was found to be 63 nM.

(Values after patent US4769378A, “Indenopyrimidine aromatase inhibitors” (Eli Lilly and Company, priority 1986, dated 1988).)
